Data reported in patent US9567384B2, “Phosphorylation on the Thr-248 and/or Thr-250 residues of transcription factor E2F4 as a therapeutic target in pathological processes associated with somatic polyploidy” (CONSEJO SUPERIOR DE INVESTIGACIONES CIENTIFICAS (CSIC), priority 2011, dated 2017).

Experiments:
cMyc gene promoter = test: Luciferase assay, cMyc gene promoter reporter in chick embryo retinal cell neurogenic cultures E6; type: cell-based
Protocol: (§1) These cells respond to NGF by inducing cell cycle reactivation that leads to somatic tetraploidy (endoreduplication) (Morillo et al., 2010). A. Western blot with anti-active p38^MAPK (P-p38^MAPK) and anti-p38^MAPK in nuclear extracts of the mentioned neurogenic cultures treated for the indicated time with 100 ng/ml NGF. The normalized ratios between P-p38^MAPK and p38^MAPK levels are indicated at the bottom. B. Immunohistochemical staining with anti-active p38^MAPK antibodies (P-p38^MAPK) in the mentioned neurogenic cultures treated with 100 ng/ml NGF for 20 minutes. The nuclei were labeled with bisbenzimide (Bisb.). […] C. Luciferase assay in extracts of chick embryo retinal cell neurogenic cultures E6 transfected with a plasmid expressing luciferase under the control of cMyc gene promoter, known for its response to E2F during G1/S transition, and another plasmid with the constitutive expression of β-galactosidase. The luciferase/β-galactosidase ratio values are depicted as “luciferase activity”. […] This effect is blocked with selective p38^MAPK inhibitor SB203580 (used at 5 μM). D. Incorporation of BrdU to indicate entry into S phase in chick embryo retinal cell neurogenic cultures E6.

[1] = system: chick embryo retinal cell neurogenic cultures E6; test: Incorporation of BrdU (entry into S phase) in chick embryo retinal cell neurogenic cultures E6; type: cell-based
Protocol: as §1
A. Luciferase activity analyzed as described in FIG. 2C. […] Based on the results shown in panels A and B, it is deduced that p38^MAPK acts exclusively through Thr261/Thr263 residues. C. Luciferase activity analyzed as described in FIG. 2C.

E2F4 = test: Western blot with anti-phosphoThr antibodies in extracts immunoprecipitated with anti-E2F4 antibodies; type: cell-based, chick; settings: 100 ng/ml NGF
p38^MAPK = test: Immunohistochemical staining with anti-active p38MAPK antibodies in neurogenic cultures; type: cell-based, chick; settings: 100 ng/ml NGF for 20 minutes
Protocol: as §1

[2] = expression of E2F4-ND, 100 ng/ml NGF

## E2F4-CA: constitutively active form of chicken E2F4 characterized by Thr261Glu/Thr263Glu substitutions
cMyc gene promoter; expression of E2F4-CA in the presence of SB203580 5 μM
  cMyc promoter activity (luciferase activity): can be observed even in the presence
cMyc gene promoter; expression of E2F4-CA, transfected cells
  cMyc promoter activity (luciferase activity): induces cMyc promoter activity
[1]; cells transfected with E2F4-CA
  incorporation of BrdU: increases significantly
[1]; cells transfected with E2F4-CA in the presence of SB203580 5 μM
  incorporation of BrdU: can be observed even in the presence
[1]; summary of FIG. 4A, FIG. 4B (luciferase and BrdU)
  mimicking the effect of NGF on retinal neurons (cell cycle reactivation): capable of mimicking the effect of NGF

## C[S+]([O-])c1ccc(-c2nc(-c3ccncc3)c(-c3ccc(F)cc3)[nH]2)cc1 (stereo not drawn) [SB203580, reference compound]
cMyc gene promoter; 100 ng/ml NGF, SB203580 used at 5 μM
  effect on NGF-induced cMyc promoter activation (luciferase activity): blocked
[1]; 100 ng/ml NGF, inhibitor used at 5 μM
  effect on NGF-induced increase in the proportion of cells in S phase (BrdU): blocked
E2F4; SB203580 used at 5 μM
  effect on NGF-promoted phosphorylation on threonine residues of E2F4: inhibits such phosphorylation

## nerve growth factor [NGF]
cMyc gene promoter; 100 ng/ml NGF
  luciferase activity (luciferase/β-galactosidase ratio), cMyc promoter: entails cMyc promoter activation
[1]; 100 ng/ml NGF
  incorporation of BrdU, proportion of cells in S phase: an increase in the proportion of cells in S phase
E2F4
  phosphorylation on threonine residues of E2F4: increase in phosphorylation on threonine residues
p38^MAPK
  active p38MAPK (P-p38MAPK) signal in the nucleus: signal increase

## E2F4-ND: negative dominant form of chicken E2F4 characterized by Thr261Ala/Thr263Ala substitutions, preventing phosphorylation by p38MAPK
cMyc gene promoter; [2]
  effect of NGF on cMyc promoter activity (luciferase activity): prevents the effect
[1]; [2]
  effect of NGF on the incorporation of BrdU: prevents the effect
[1]; summary of FIG. 4C, FIG. 4D (luciferase and BrdU)
  effect of NGF on the cell cycle in neurogenic retinal cultures: capable of inhibiting the effect of NGF
